In patent publication US20050170052A1, “Water and feed preservative for animal uses” (priority 2004, published 2005):
Read-outs that look alike come from different tables or passages of the source.

Tests used:
[1] = format: physicochemical; details: buffer, 1000 ppm
Description: (§1) A solution containing 1000 ppm citral in distilled water was homogenized with a high speed homogenizer. This solution was stored in a beaker covered with porous paper for a week. The concentration of citral remaining after a week was determined by a gas chromatography. A standard curve was prepared with reagent grade citral to which b-ionone was used as internal standard. At the beginning of the study and after a week the concentration of citral was determined by plotting it on the standard curve.

[2] = format: physicochemical; details: buffer, 1000 ppm; remark: listed apart in the source
Description: as §1, with “closed glass bottle” for “beaker covered with porous paper”, “four weeks. Concentration” for “a week. The concentration”, “remaining” for “remaining after a week”, “weekly” for “after a week”

E. coli [3] = assay: Biocidal effect of terpenes in organic preservative-free apple juice (Example 7); format: cell-based; details: 250 ppm in unpasteurized apple juice, E. coli added, one week room temperature
Description: To 100 ml of unpasteurized apple juice was added different concentration of terpenes varying from 0 to 250 ppm. After mixing, 0.5 ml of 1×10^6 cfu E. coli was added to each juice/terpene mixture and incubated at room temperature for a week. After incubation, 0.1 ml of each of the solutions was plated onto nutrient agar and incubated for 18 hours at 37° C. Results are expressed as cfu/ml and percent reduction as compared to control.

E. coli [4] = details: cited from earlier work

| SMILES | Percentage of citral remaining, Week 1 ([1]; 1 week) | Percentage of citral remaining, Day 1 ([1]; 1 day) | Percentage of citral remaining, Week 1 ([2]; 1 week) | Percentage of citral remaining, Week 2 ([2]; 2 week) | Percentage of citral remaining, Week 4 ([2]; 4 week) | Percentage of citral remaining, Day 1 ([2]; 1 day) | % reduction (E. coli [3]) | cfu/ml (E. coli [3]) | citral concentration in growth media that reduced the concentration of E. coli (E. coli [4]) | citral concentration with bactericidal effect (E. coli [4]; growth media) |
| --- | --- | --- | --- | --- | --- | --- | --- | --- | --- | --- |
| CC(C)=CCCC(C)=CC=O [Citral, citral] | 21.5% | 100% | 32% | 27% | 22% | 100% | 100% | 0 cfu/ml | more than 0.01% | 0.08% |
| CC(=O)/C=C/C1=C(C)CCCC1(C)C [B-ionone] | – | – | – | – | – | – | 100% | 0 cfu/ml | – | – |
